Legend:
[1] = test system: endothelium-denuded rat small mesenteric artery; assay: Vasorelaxation of endothelium-denuded rat small mesenteric artery; conditions: logistic fit; for EC50: Rattus norvegicus, precontracted with methoxamine
Description: FIG. 17 is a graph showing vasorelaxation of endothelium-denuded rat small mesenteric artery preparations by MitoSNAP and SNAP. To measure vessel relaxation in endothelium-denuded rat mesenteric artery male Wistar rats (250-350 g) were anesthetized with sodium pentobarbitone (60 mg/kg ip Sagatal, Rhone Merieux, Harlow, Essex UK). The mesentery was removed and placed in ice-cold, gassed (95% O2/5% CO2) Krebs-Henseleit buffer. […] Vessels were maintained at 37° C. in Krebs-Henseleit solution containing indomethacin (10 μM) and bubbled with 95% O2/5% CO2 and were allowed to equilibrate under zero tension for 60 min. After equilibration vessels were normalized to a tension equivalent that generated at 90% of the diameter of the vessel at 100 mm Hg^3. Vessels were precontracted with methoxamine and then sequential cumulative additions of test compounds were made to relax the vessels shielded from direct light. Relaxation of muscle tone are expressed as a percentage of relaxation of the initial tone. Data are means of four determination of MitoNAP and MitoSNAP and of 6 for SNAP. Data from the dose-response curves were fitted to a logistic curve, with the following parameters: […]

cytochrome c oxidase = target: T1, cytochrome c oxidase (Rattus norvegicus, UniProt P05503); assay: NO generation and respiration in isolated liver mitochondria (NO and O2 electrodes); assay type: biochemical; conditions: succinate
T1 construct: from tissue; host or cells: rat liver mitochondria
Description: FIG. 9 is a series of traces and graphs showing membrane potential-dependent MitoSNAP mitochondrial uptake and NO^• generation. (a-d) Liver mitochondria were incubated in KCl medium supplemented with rotenone in a stirred 3 ml chamber and electrodes were used to measure the concentrations of O2 and NO^• simultaneously. Where indicated succinate (10 mM), OxyHb (5 μM) or FCCP (500 nM) were added. For (a) and (b) 2 mg mitochondrial protein/ml and 20 μM MitoSNAP (a) or SNAP (b) were used. For (c) and (d) 0.5 mg mitochondrial protein/ml and 5 μM MitoSNAP were used. There was no effect of 5 μM MitoNAP on respiration or NO^• production. All traces are from typical experiments repeated at least twice. (e-f) Mitochondria (1 mg protein) were incubated in 1 ml KCl medium without neocuproine or DTPA, supplemented with rotenone and succinate in the absence (e) or presence (f) of FCCP (500 nM). Mitochondria were then pelleted by centrifugation (10,000×g) then aliquots of the supernatant (700 μl) were mixed with 700 μl 0.1% TFA and analyzed by RP-HPLC. The amount of MitoSNAP and MitoNAP were calculated as the percentage of their peak areas relative to the sum of both peak areas.
Nitrite, nitric oxide and S-nitrosothiol measurements. Nitrite was analyzed by the Griess assay (Molecular Probes). Nitric oxide was measured using an NO^• electrode (World Precision Instruments Ltd, UK) connected to an Apollo 4000 Free Radical Analyser. The electrode was inserted into a stirred, sealed 3 ml chamber with a Clark type O2 electrode (Rank Brothers, UK) built into its base and was thermostatted at 37° C. The NO^• electrode was calibrated by adding SNAP to argon-purged, saturated CuCl. OxyHb was prepared by reduction of bovine methemoglobin with sodium dithionite. Protein S-nitrosothiols were measured using a chemiluminescence assay in an EcoMedics CLD 88 Exhalyzer (Annex, Herts, UK) (Feelisch, M. et al. Concomitant S—, N—, and heme-nitros(yl)ation in biological tissues and fluids: implications for the fate of NO in vivo. FASEB. J. 16, 1775-85 (2002)).
Mitochondrial incubations were usually in KCl buffer (120 mM KCl, 10 mM HEPES, 1 mM EGTA, 100 μM N,N-bis(2-bis[carboxymethyl]aminoethyl) glycine (DTPA) and 10 μM neocuproine, pH 7.2) with 10 mM succinate and 4 μg/ml rotenone in the dark at 37° C., unless stated otherwise. An electrode selective for the TPP moiety of MitoSNAP and MitoNAP was made and used as described previously (Asin-Cayuela, J., Manas, A. R., James, A. M., Smith, R. A. & Murphy, M. P. Fine-tuning the hydrophobicity of a mitochondria-targeted antioxidant. FEBS Letts. 571, 9-16 (2004)). Respiration rates were measured in a Clark type O2 electrode (Rank Brothers, UK). To measure GSH and GSSG, mitochondria (1 mg protein/ml) were incubated with 0-10 μM MitoSNO1 or MitoNAP for 10 min, pelleted by centrifugation and the GSH and GSSG contents assessed by the recycling assay (Scarlett, J. L., Packer, M. A., Porteous, C. M. & Murphy, M. P. Alterations to glutathione and nicotinamide nucleotides during the mitochondrial permeability transition induced by peroxynitrite. Biochem. Pharmacol. 52, 1047-1055 (1996)). The measurement of exposed mitochondrial protein thiols is described below.
Following its accumulation within mitochondria MitoSNAP interacted with the GSH-rich matrix to release NO^• which then affected respiration by competitively inhibiting O2 consumption at cytochrome c oxidase. […] Mitochondria were incubated with the complex I inhibitor rotenone in the absence of substrate to prevent Δψ generation, and addition of 20 μM MitoSNAP produced a small amount of NO^•, presumably due to MitoSNAP diffusion into the mitochondrial matrix and reaction with GSH (FIG. 9a).
To explore further the Δψ-dependence of NO^• production by MitoSNAP, studies with decreased concentrations (5 μM) and fewer mitochondria (0.5 mg protein/ml) were undertaken (FIGS. 9c & d). […]

[2] = 20 μM, 2 mg mitochondrial protein/ml
[3] = 5 μM, 0.5 mg mitochondrial protein/ml

| SMILES | EC50 [1] | max. relaxation of induced tone [1] | slope function (Hill slope) [1] | NO production by energized mitochondria (cytochrome c oxidase; [2]) | effect on respiration (cytochrome c oxidase; [2]) | NO production by energized mitochondria (cytochrome c oxidase; [3]) | effect on respiration (cytochrome c oxidase; [3]) |
| --- | --- | --- | --- | --- | --- | --- | --- |
| CC(=O)NC(C(=O)O)C(C)(C)SN=O (racemic) [SNAP, S-nitroso-N-acetyl-DL-penicillamine, reference compound] | 5.2 ± 0.5 nM | 92±2% | 1.0±0.1 | negligible | did not affect respiration | – | – |
| CC(=O)NC(C(=O)NCCCCC[P+](c1ccccc1)(c1ccccc1)c1ccccc1)C(C)(C)SN=O.CS(=O)(=O)[O-] (stereo not drawn) [MitoSNAP, [5-(2-acetylamino-3-methyl-3-nitrosothio-butyrylamino)-penty1]-triphenylphosphonium methanesulfonate] | 16.5 ± 1.1 nM | 96±1% | 1.3±0.1 | rapid increase in NO^• production | respiration rate slowed | dramatic increase in NO^• production | decreased respiration |

— US9045505B2, “Nitric oxide donors” (University of Otago, priority 2006, dated 2015)
